Assay results: publication PMC5161041 (Journal of medicinal chemistry, 2016)

Tests used:
NET = NET (Rattus norvegicus, UniProt Q63380); assay: NET binding assay, [3H]nisoxetine, rat frontal cortex membranes
[1] = molecular target: Dopamine D2 receptor Gi1 activation (Homo sapiens, UniProt P14416); format: cell-based
[2] = introductory statement, no reference given; cited from earlier work
[3] = Mouse microsomal stability assay; format: in vitro ADME; details: mouse liver microsomes
mice = assay: Locomotor activity studies in mice; details: for locomotion: i.p.
DAT = DAT (Rattus norvegicus, UniProt P23977); assay: DAT binding assay, [3H]WIN 35,428, rat striatal membranes; details: 8c vs 10a, 9c vs 11a
Chain of DAT (P23977 whole entry): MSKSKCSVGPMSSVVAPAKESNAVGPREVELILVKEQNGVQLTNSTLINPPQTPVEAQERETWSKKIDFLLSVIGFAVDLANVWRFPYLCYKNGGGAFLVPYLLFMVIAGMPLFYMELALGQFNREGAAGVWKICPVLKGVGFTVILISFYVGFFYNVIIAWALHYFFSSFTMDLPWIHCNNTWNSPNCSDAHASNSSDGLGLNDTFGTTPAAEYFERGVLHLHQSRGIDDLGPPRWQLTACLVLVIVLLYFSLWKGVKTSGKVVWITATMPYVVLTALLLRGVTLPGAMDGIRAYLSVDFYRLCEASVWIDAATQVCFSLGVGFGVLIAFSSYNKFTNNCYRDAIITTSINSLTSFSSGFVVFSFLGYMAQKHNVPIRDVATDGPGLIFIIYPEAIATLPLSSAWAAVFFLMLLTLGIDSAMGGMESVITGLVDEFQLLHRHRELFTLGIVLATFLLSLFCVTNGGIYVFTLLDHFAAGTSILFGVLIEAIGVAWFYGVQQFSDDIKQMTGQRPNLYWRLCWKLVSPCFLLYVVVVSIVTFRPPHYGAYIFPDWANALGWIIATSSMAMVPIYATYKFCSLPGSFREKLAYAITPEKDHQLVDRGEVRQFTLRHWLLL

Chain of NET (Q63380 1-617): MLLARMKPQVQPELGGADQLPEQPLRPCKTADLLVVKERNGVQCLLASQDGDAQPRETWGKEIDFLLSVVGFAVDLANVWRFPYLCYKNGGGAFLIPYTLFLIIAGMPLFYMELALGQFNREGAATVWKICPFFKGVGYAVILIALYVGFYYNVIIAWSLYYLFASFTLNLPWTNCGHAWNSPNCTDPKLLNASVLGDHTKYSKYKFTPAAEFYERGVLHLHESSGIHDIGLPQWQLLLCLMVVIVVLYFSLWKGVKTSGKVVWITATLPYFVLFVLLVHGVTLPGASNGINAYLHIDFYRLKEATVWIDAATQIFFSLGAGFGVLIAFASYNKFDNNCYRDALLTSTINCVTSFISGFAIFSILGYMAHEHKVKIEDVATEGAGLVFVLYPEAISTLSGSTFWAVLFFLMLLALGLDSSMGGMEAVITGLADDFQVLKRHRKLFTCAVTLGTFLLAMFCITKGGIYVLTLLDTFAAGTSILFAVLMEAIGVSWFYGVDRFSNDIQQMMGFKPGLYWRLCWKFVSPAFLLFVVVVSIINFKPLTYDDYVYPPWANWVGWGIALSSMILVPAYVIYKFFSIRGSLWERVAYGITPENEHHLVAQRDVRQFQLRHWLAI
Chain of Dopamine D2 receptor Gi1 activation (P14416 whole entry): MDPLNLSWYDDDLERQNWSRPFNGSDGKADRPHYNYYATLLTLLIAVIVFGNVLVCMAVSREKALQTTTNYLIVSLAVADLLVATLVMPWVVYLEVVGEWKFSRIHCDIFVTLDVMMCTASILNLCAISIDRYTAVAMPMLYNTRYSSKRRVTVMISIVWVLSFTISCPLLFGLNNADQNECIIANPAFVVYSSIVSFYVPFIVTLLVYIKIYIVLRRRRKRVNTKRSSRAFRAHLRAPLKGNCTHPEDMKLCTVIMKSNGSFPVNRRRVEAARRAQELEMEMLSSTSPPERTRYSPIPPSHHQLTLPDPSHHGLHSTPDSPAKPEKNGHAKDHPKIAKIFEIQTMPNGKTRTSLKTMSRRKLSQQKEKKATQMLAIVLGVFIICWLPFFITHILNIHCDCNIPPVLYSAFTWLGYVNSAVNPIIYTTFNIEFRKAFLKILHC

CC(O)CN1CCN(C(=O)CSC(c2cccc(Cl)c2)c2cccc(Cl)c2)CC1 (centres unmarked) [Compound 13g, 2-((Bis(3-chlorophenyl)methyl)thio)-1-(4-(2-hydroxypropyl)piperazin-1-yl)ethan-1-one]
Ki (NET): > 50 µM

CCCCN1C2CCC1CC(OC(c1ccc(F)cc1)c1ccc(F)cc1)C2 (centres unmarked) [Compound 3, 3-(bis(4-fluorophenyl)methoxy)-8-butyl-8-azabicyclo[3.2.1]octane]
IC50 [1]: 2 ± 0.73 µM

Fc1ccc(C(SCCNCCCc2ccccc2)c2ccc(F)cc2)cc1 [Compound 4, N-(2-((bis(4-fluorophenyl)methyl)thio)ethyl)-3-phenylpropan-1-amine]
IC50 [1]: > 10 µM

NC(=O)C[S+]([O-])C(c1ccccc1)c1ccccc1 (centres unmarked) [Compound 2, 2-[(diphenylmethyl)sulfinyl]acetamide]
water solubility [2]: essentially insoluble in water

[O-][S+](CCN1CCN(Cc2ccc(Cl)cc2)CC1)C(c1ccc(F)cc1)c1ccc(F)cc1 (centres unmarked) [Compound 9h, 1-(2-((Bis(4-fluorophenyl)methyl)sulfinyl)ethyl)-4-(4-chlorobenzyl)piperazine]
Ki (NET): > 50 µM | time in which metabolized [3]: < 30 min

CC(O)CN1CCN(C(=O)C[S+]([O-])C(c2cccc(Cl)c2)c2cccc(Cl)c2)CC1 (centres unmarked) [Compound 14g, 2-((Bis(3-chlorophenyl)methyl)sulfinyl)-1-(4-(2-hydroxypropyl)piperazin-1-yl)ethan-1-one]
Ki (NET): > 50 µM

NC(=O)C[S@@+]([O-])C(c1ccccc1)c1ccccc1 [(R)-2, reference compound]
IC50 [1]: > 10 µM | locomotion (mice; mice, 10 mg/kg): very mild increase | locomotion (mice; mice, 30 mg/kg): significant dose-dependent increase in locomotion

[O-][S+](CCN1CCN(Cc2ccc(F)cc2)CC1)C(c1ccc(F)cc1)c1ccc(F)cc1 (centres unmarked) [Compound 9f, 1-(2-((Bis(4-fluorophenyl)methyl)sulfinyl)ethyl)-4-(4-fluorobenzyl)piperazine]
Ki (NET): > 50 µM | time in which metabolized [3]: < 30 min

O=C(C[S+]([O-])C(c1ccc(F)cc1)c1ccc(F)cc1)N1CCN(Cc2ccc(F)cc2)CC1 (centres unmarked) [Compound 14e, 2-((Bis(4-fluorophenyl)methyl)sulfinyl)-1-(4-(4-fluorobenzyl)piperazin-1-yl)ethan-1-one]
time in which metabolized [3]: < 30 min

CC(O)CN1CCN(CCSC(c2ccccc2)c2ccccc2)CC1 (centres unmarked) [Compound 8c, 1-(4-(2-(Benzhydrylthio)ethyl)piperazin-1-yl)propan-2-ol]
fold decrease in DAT affinity on removal of the phenyl group (DAT): 25 fold

CC(O)CN1CCN(CC[S+]([O-])C(c2cccc(Cl)c2)c2cccc(Cl)c2)CC1 (centres unmarked) [Compound 9i, 1-(4-(2-((Bis(3-chlorophenyl)methyl)sulfinyl)ethyl)piperazin-1-yl)propan-2-ol]
Ki (NET): > 50 µM

CC(O)CN1CCN(C(=O)CSC(c2ccc(F)cc2)c2ccc(F)cc2)CC1 (centres unmarked) [Compound 13c, 2-((Bis(4-fluorophenyl)methyl)thio)-1-(4-(2-hydroxypropyl)piperazin-1-yl)ethan-1-one]
time in which metabolized [3]: < 30 min

[O-][S+](CCN1CCN(CC(O)Cc2ccccc2)CC1)C(c1ccc(F)cc1)c1ccc(F)cc1 (centres unmarked) [Compound 11b, 1-(4-(2-((Bis(4-fluorophenyl)methyl)sulfinyl)ethyl)piperazin-1-yl)-3-phenylpropan-2-ol]
locomotor stimulation compared to cocaine (mice; mice): only moderate locomotor stimulation in mice and was substantially less efficacious than cocaine | locomotion (mice; mice, 30 mg/kg): significant dose-dependent increase in locomotion | locomotor stimulation compared to cocaine (mice; mice, listed as 11d): far less efficacious than cocaine

[O-][S+](CCN1CCN(CC(O)Cc2ccccc2)CC1)C(c1ccccc1)c1ccccc1 (centres unmarked) [Compound 11a, 1-(4-(2-(Benzhydrylsulfinyl)ethyl)piperazin-1-yl)-3-phenylpropan-2-ol]
time in which metabolized [3]: < 30 min

CCc1cc(Cl)c(OC)c(C(=O)NC[C@@H]2CCCN2CC)c1O [eticlopride]
IC50 [1]: 0.0021 ± 0.0008 µM

CC(O)CN1CCN(CC[S+]([O-])C(c2ccccc2)c2ccccc2)CC1 (centres unmarked) [Compound 9c, 1-(4-(2-(Benzhydrylsulfinyl)ethyl)piperazin-1-yl)propan-2-ol]
fold decrease in DAT affinity on removal of the phenyl group (DAT): 187 fold

COC(=O)[C@H]1[C@@H](OC(=O)c2ccccc2)C[C@@H]2CC[C@H]1N2C [cocaine, reference compound]
locomotion (mice; mice, 3, 10 mg/kg): robust dose-dependent increase in locomotion

O=C(C[S+]([O-])C(c1ccc(F)cc1)c1ccc(F)cc1)N1CCN(CCCc2ccccc2)CC1 (centres unmarked) [Compound 14b, 2-((Bis(4-fluorophenyl)methyl)sulfinyl)-1-(4-(3-phenylpropyl)piperazin-1-yl)ethan-1-one]
time in which metabolized [3]: < 30 min

[O-][S+](CCN1CCN(Cc2ccc(C(F)(F)F)cc2)CC1)C(c1ccc(F)cc1)c1ccc(F)cc1 (centres unmarked) [Compound 9g, 1-(2-((Bis(4-fluorophenyl)methyl)sulfinyl)ethyl)-4-(4-(trifluoromethyl)benzyl)piperazine]
Ki (NET): > 50 µM | time in which metabolized [3]: < 30 min
